Among the data in US20240325375A1, “Effect of YEL002 on Psychological and Psychiatric Factors in Health and Disease” (RadMit, Inc., priority 2023, published 2024) are spontaneous lymphoma frequency values, retold here.

For the test, the system named is lymphoma. The test can be described thus: Lymphoma incidence in mice (National Institute of Health experiment). In kind it is in vivo. The settings on record: reduced from 10-20%. As for the experimental part: In another experiment at the National Institute of Health, in other mice after radiation exposure which caused 90% of them to develop lymphoma, there was a reduction of the lymphoma incidence to 40% and the spontaneous frequency was reduced from 10-20% down to 0%. […] This was observed after treating mice right after birth, if humans are treated later in life it is possible that only 10 or 5 years are added and probably more for DNA repair deficient diseases like ataxia telangiectasia (ATM) which is still very substantial, especially, since it treats and reduces the likelihood of many diseases.

In the case of `COc1ccc2cc(-c3nc4ccc(C)cn4c3NCc3ccco3)c(=O)[nH]c2c1` [YEL002], the spontaneous lymphoma frequency was 0%.
